Assay results: patent publication US4921504A, “4-(N-ethyl-N-2-hydroxyethyl)-amino-1-(2 hydroxyethyl)-amino-2-nitrobenzene and compositions for dyeing hair containing the same” (Wella Aktiengesellschaft, priority 1984, dated 1990)
≈ marks a conversion by molar mass, not a printed value. Where two headings read alike, the source gives them in different places.

How the values were obtained:
solubility in water = format: physicochemical
Text: In view of the foregoing, it was most surprising to find the blue nitro dye (compound I), being an isomer of compound III and a homologue of compound VI, has sufficiently different characteristics which cannot be derived from known compounds III, IV, V or VI. The dye (I) in accordance with the present invention has a solubility of about 1.0% in water which facilitates the acquisition of dark shades considerably, particularly, in comparison with compound III. […] Rather, an oil is formed from which the dye can later be supplied during the dyeing process. The alternative of redissolving formed crystals would take too much time and, as a result, such crystals would not, again, be available during the dyeing process.

Ames test = format: cell-based
yeast cell = assay: yeast cell-mutagenity test; format: cell-based
Text: 2. yeast cell-mutagenity test

mouse-lymphoma = assay: mouse-lymphoma-assay; format: cell-based
human-lymphocyte = assay: human-lymphocyte-test; format: cell-based
LD50 (toxicity) = settings: in vivo
[1] = storage stability of dyes; format: physicochemical; settings: in dye compositions
light genuiness = format: physicochemical; settings: nitro dyes containing compound I
[2] = general toxicological safety; settings: compared with compounds II through VI
[3] = prior-art compound, cited from earlier work
[4] = prior-art compound; cited from earlier work
[5] = prior-art compound; doubts recently raised regarding safe use; cited from earlier work
[6] = in water without also having to dissolve intermediaries (III)

## CCN(CCO)c1ccc(NCCO)c([N+](=O)[O-])c1 [Compound I, 4-(N-ethyl-N-2'-hydroxyethyl)-amino-1-(2"-hydroxyethyl)-amino-2-nitrobenzene]
Solubility in water; exceeding solubility, an oil is formed
  behaviour when exceeding solubility: does not crystallize
Solubility in water; in water
  solubility: ~10 mg/mL (≈ 37.1 mM)
Ames test
  mutagenicity in Ames test: not mutagenic
Yeast cell
  mutagenicity in yeast cell-mutagenity test: not mutagenic
mouse-lymphoma
  mutagenicity in mouse-lymphoma-assay: not mutagenic
human-lymphocyte
  mutagenicity in human-lymphocyte-test: not mutagenic
LD50 (toxicity)
  LD50: ~2000 mg/kg
Skin compatibility
  skin compatibility: good skin compatibility
[1]
  storage stability: extraordinary
Light genuiness
  light genuiness: very good
[2]
  toxicological safety: safe

## CCNc1ccc(N(CCO)CCO)cc1[N+](=O)[O-] [III]
[3]; [6]
  solubility in water: below 0.15%

## O=[N+]([O-])c1cc(N(CCO)CCO)ccc1NCCO [IV]
[3]
  solubility in water: high solubility

## CN(CCO)c1ccc(NCCO)c([N+](=O)[O-])c1 [VI]
[4]
  mutagenic effect in Ames test: mutagenic effect

## CNc1ccc(N(CCO)CCO)cc1[N+](=O)[O-] [V]
[3]; [6]
  solubility in water: about 0.5%
[5]
  level of toxicity: possibly unacceptable
